Here are results for 14 molecules from article PMC5431883, “Enhancing Specific Disruption of Intracellular Protein Complexes by Hydrocarbon Stapled Peptides Using Lipid Based Delivery” (Scientific Reports, 2017).

Positions of bridges follow the written chain, without caps; N, C: chain ends. Non-standard residues stand in square brackets, D forms with d. Residues, ends and D or L forms follow the SMILES beside them. Trp(6-Cl) = N[C@@H](Cc1c[nH]c2cc(Cl)ccc12)C(=O)O; R8 = C=CCCCCCC[C@@](C)(N)C(=O)O; Cba = N[C@@H](CC1CCC1)C(=O)O; S5 = C=CCCC[C@](C)(N)C(=O)O; Ahx = NCCCCCC(=O)O Some results are limits rather than exact numbers.

The test deals with T1, Mdm2 (1-125) (Homo sapiens, UniProt Q00987).
T1 construct: Purified MDM2 (1-125) protein was titrated against 50 nM carboxyfluorescein (FAM)-labeled; GST (N, cleaved yes); made in house; host or cells: E. coli BL21 DE3 (pGEX-6P-1)
T1 sequence (Q00987 1-125): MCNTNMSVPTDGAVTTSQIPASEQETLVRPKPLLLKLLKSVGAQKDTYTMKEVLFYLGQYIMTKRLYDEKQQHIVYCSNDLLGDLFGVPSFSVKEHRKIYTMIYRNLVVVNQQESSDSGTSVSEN
Put plainly: Mdm2 competitive fluorescence anisotropy assay (FAM-labeled 12/1 peptide displacement). Note: 250 nM MDM2. The format is binding. The settings on record: read-out: Kd (apparent dissociation constant, competitive fluorescence anisotropy). On the procedure: analyzed with SDS page gel and concentrated using a Centricon (3.5 kDa MWCO) concentrator, Millipore. Mdm2 protein samples were then dialyzed into a buffer solution containing 20mM Bis-Tris, pH 6.5, 0.05M NaCl with 1mM DTT and loaded onto a monoS column pre-equilibrated in buffer A (20mM Bis-Tris, pH 6.5, 1mM DTT). The column was then washed in 6 column volumes of buffer A and bound protein was eluted with a linear gradient of 1M NaCL over 25 column volumes. Protein fractions were analyzed with SDS page gel and concentrated using a Centricon (3.5 kDa MWCO) concentrator, Millipore.
Protein concentration was determined using A280 using an extinction coefficients […]
Mdm2 Competitive Fluorescence Anisotropy Assay and Kd Determination […]
Dissociation constants for titration of MDM2 against […]
equation shown below:25,26
[P] is the protein concentration (MDM2), [L] is the labeled peptide concentration, r is the anisotropy measured, r0 is the anisotropy of the free peptide, rb is the anisotropy of the MDM2– FAM-labeled peptide complex, Kd is the dissociation constant, [L]t is the total FAM labeled
(1 picture or pasted object on this page, not shown here) […]
peptide concentration, and [P]t is the total MDM2 concentration. […]
respective competing ligands in subsequent competition assays.
Apparent Kd values were determined for a variety of molecules via competitive fluorescence anisotropy experiments. Titrations were carried out with the concentration of MDM2 held constant […]
The competing molecules were then titrated against the complex of the FAM-labeled peptide and protein. Apparent Kd values were determined by fitting the experimental data to the equations shown below:26,27 […]
[L]st and [L]t denote labeled ligand and total unlabeled ligand input concentrations, respectively.
Kd2 is the dissociation constant of the interaction between the unlabeled ligand and the protein. In […]
all competitive types of experiments, it is assumed that [P]t > [L]st, otherwise considerable amounts of free labeled ligand would always be present and would interfere with measurements. Kd1 is the […]
experimentally determined as described in the previous paragraph. The FAM-labeled peptide was dissolved in dimethyl sulfoxide (DMSO) at 1 mM and diluted into experimental buffer. Readings were carried out with an Envision Multilabel Reader (PerkinElmer). Experiments were carried out […]
Tween 20 buffer. All titrations were carried out in triplicate. Curve-fitting was carried out using […]
Negative control titrations of the ligands under investigation were also carried out with the fluorescently labeled peptide (in the absence of MDM2) to ensure no interactions were occurring between the ligands and FAM-labeled peptide. […]
which would otherwise indicate an unintended interaction between the ligand and the FAM-labeled peptide to be displaced from the MDM2 binding site. […]
`CC(=O)N[C@H](CCCCN)C(=O)N[C@H](CCCCN)C(=O)NCCCCCC(=O)N[C@H](C(=O)N[C@@H](CO)C(=O)N[C@@H](Cc1ccccc1)C(=O)N[C@]1(C)CCCCCCC=CCCC[C@@](C)(C(=O)N[C@@H](CCC(=O)O)C(=O)N[C@@H](CC(N)=O)C(=O)N[C@@H](Cc2ccccc2)C(N)=O)NC(=O)[C@H](CC(C)C)NC(=O)[C@H](CC(C)C)NC(=O)[C@H](C)NC(=O)[C@H](Cc2c[nH]c3ccccc23)NC(=O)[C@H](Cc2ccc(O)cc2)NC(=O)[C@H](CCC(=O)O)NC1=O)[C@@H](C)O` [VIP-133] (Ac-[dK][dK][Ahx]TSF[R8]EYWALL[S5]ENF-NH2; staple 7-14): the Kd was 10 ± 1 nM.
The result for `CC(=O)N[C@@H](CCCNC(=N)N)C(=O)N[C@@H](CCCNC(=N)N)C(=O)N[C@@H](CCCNC(=N)N)C(=O)NCCCCCC(=O)N[C@H](C(=O)N[C@@H](CO)C(=O)N[C@@H](CC(C)C)C(=O)N[C@]1(C)CCCCCCC=CCCC[C@@](C)(C(=O)N[C@@H](CCC(=O)O)C(=O)N[C@@H](CC(N)=O)C(=O)N[C@@H](Cc2ccccc2)C(N)=O)NC(=O)[C@H](Cc2c[nH]c3ccccc23)NC(=O)[C@H](CC(C)C)NC(=O)[C@H](C)NC(=O)[C@H](Cc2ccccc2)NC(=O)[C@H](Cc2ccc(O)cc2)NC(=O)[C@H](CCC(=O)O)NC1=O)[C@@H](C)O` [VIP-128 SCRAM] (Ac-RRR[Ahx]TSL[R8]EYFALW[S5]ENF-NH2; staple 8-15) reads more than 10000 nM.
With `CC(=O)N[C@@H](CCCCN)C(=O)N[C@@H](CCCCN)C(=O)N[C@@H](CCCCN)C(=O)NCCCCCC(=O)N[C@H](C(=O)N[C@@H](CO)C(=O)N[C@@H](Cc1ccccc1)C(=O)N[C@]1(C)CCCCCCC=CCCC[C@@](C)(C(=O)N[C@@H](CCC(=O)O)C(=O)N[C@@H](CC(N)=O)C(=O)N[C@@H](Cc2ccccc2)C(N)=O)NC(=O)[C@H](CC(C)C)NC(=O)[C@H](CC(C)C)NC(=O)[C@H](C)NC(=O)[C@H](Cc2c[nH]c3ccccc23)NC(=O)[C@H](Cc2ccc(O)cc2)NC(=O)[C@H](CCC(=O)O)NC1=O)[C@@H](C)O` [VIP-115] (Ac-KKK[Ahx]TSF[R8]EYWALL[S5]ENF-NH2; staple 8-15), the Kd was 11.6 ± 1.2 nM.
The result for `CC(=O)N[C@H](C(=O)N[C@@H](CO)C(=O)N[C@@H](Cc1ccccc1)C(=O)N[C@]1(C)CCCCCCC=CCCC[C@@](C)(C(=O)N[C@@H](CCC(=O)O)C(=O)N[C@@H](CC(N)=O)C(=O)N[C@@H](Cc2ccccc2)C(N)=O)NC(=O)[C@H](CC(C)C)NC(=O)[C@H](CC(C)C)NC(=O)[C@H](C)NC(=O)[C@H](Cc2c[nH]c3ccccc23)NC(=O)[C@H](Cc2ccc(O)cc2)NC(=O)[C@H](CCC(=O)O)NC1=O)[C@@H](C)O` [VIP-65] reads 19.7 ± 1.3 nM; that for `CC(=O)N[C@H](C(=O)N[C@@H](CO)C(=O)N[C@@H](Cc1ccccc1)C(=O)N[C@]1(C)CCCCCCC=CCCC[C@@](C)(C(=O)N[C@@H](CCC(=O)O)C(N)=O)NC(=O)[C@H](CC2CCC2)NC(=O)[C@H](CC(C)C)NC(=O)[C@H](C)NC(=O)[C@H](Cc2c[nH]c3ccccc23)NC(=O)[C@H](Cc2ccc(O)cc2)NC(=O)[C@H](CCC(=O)O)NC1=O)[C@@H](C)O` [VIP-71] (Ac-TSF[R8]EYWAL[Cba][S5]E-NH2; staple 4-11), 14 ± 1.1 nM.
To `CC(=O)N[C@H](C(=O)N[C@@H](CO)C(=O)N[C@@H](Cc1ccccc1)C(=O)N[C@]1(C)CCCCCCC=CCCC[C@@](C)(C(=O)N[C@@H](CCC(=O)O)C(N)=O)NC(=O)[C@H](CC2CCC2)NC(=O)[C@H](CC(C)C)NC(=O)[C@H](C)NC(=O)[C@H](Cc2c[nH]c3cc(Cl)ccc23)NC(=O)[C@H](Cc2ccc(O)cc2)NC(=O)[C@H](CCC(=O)O)NC1=O)[C@@H](C)O` [VIP-138] (Ac-TSF[R8]EY[Trp(6-Cl)]AL[Cba][S5]E-NH2; staple 4-11) belongs less than 1 nM.
The result for `CC(=O)N[C@@H](CCCNC(=N)N)C(=O)N[C@@H](CCCNC(=N)N)C(=O)N[C@@H](CCCNC(=N)N)C(=O)NCCCCCC(=O)N[C@H](C(=O)N[C@@H](CO)C(=O)N[C@@H](Cc1ccccc1)C(=O)N[C@]1(C)CCCCCCC=CCCC[C@@](C)(C(N)=O)NC(=O)[C@H](CC(C)C)NC(=O)[C@H](CC(C)C)NC(=O)[C@H](C)NC(=O)[C@H](Cc2c[nH]c3ccccc23)NC(=O)[C@H](Cc2ccc(O)cc2)NC(=O)[C@H](CCC(=O)O)NC1=O)[C@@H](C)O` [VIP-78] reads 78.8 ± 8.2 nM.
Take `CC(=O)N[C@@H](CCCCN)C(=O)N[C@@H](CCCCN)C(=O)N[C@@H](CO)C(=O)NCC(=O)N[C@@H](CO)C(=O)NCC(=O)N[C@H](C(=O)N[C@@H](CO)C(=O)N[C@@H](Cc1ccccc1)C(=O)N[C@]1(C)CCCCCCC=CCCC[C@@](C)(C(N)=O)NC(=O)[C@H](CC(C)C)NC(=O)[C@H](CC(C)C)NC(=O)[C@H](C)NC(=O)[C@H](Cc2c[nH]c3ccccc23)NC(=O)[C@H](Cc2ccc(O)cc2)NC(=O)[C@H](CCC(=O)O)NC1=O)[C@@H](C)O` [VIP-151] (Ac-KKSGSGTSF[R8]EYWALL[S5]-NH2; staple 10-17): the Kd stood at 33.6 ± 5.6 nM.
To `CC(=O)N[C@@H](CCCCN)C(=O)N[C@@H](CCCCN)C(=O)NCCCCCC(=O)N[C@H](C(=O)N[C@@H](CO)C(=O)N[C@@H](Cc1ccccc1)C(=O)N[C@]1(C)CCCCCCC=CCCC[C@@](C)(C(=O)N[C@@H](CCC(=O)O)C(=O)N[C@@H](CC(N)=O)C(=O)N[C@@H](Cc2ccc(O)cc2)C(N)=O)NC(=O)[C@H](CC(C)C)NC(=O)[C@H](CC(C)C)NC(=O)[C@H](C)NC(=O)[C@H](Cc2c[nH]c3ccccc23)NC(=O)[C@H](Cc2ccc(O)cc2)NC(=O)[C@H](CCC(=O)O)NC1=O)[C@@H](C)O` [VIP-86] (Ac-KK[Ahx]TSF[R8]EYWALL[S5]ENY-NH2; staple 7-14) belongs 23.5 ± 1.4 nM; to `CC(=O)N[C@H](CCCCN)C(=O)NCCCCCC(=O)N[C@H](C(=O)N[C@@H](CO)C(=O)N[C@@H](Cc1ccccc1)C(=O)N[C@]1(C)CCCCCCC=CCCC[C@@](C)(C(=O)N[C@@H](CCC(=O)O)C(=O)N[C@@H](CC(N)=O)C(=O)N[C@@H](Cc2ccccc2)C(N)=O)NC(=O)[C@H](CC(C)C)NC(=O)[C@H](CC(C)C)NC(=O)[C@H](C)NC(=O)[C@H](Cc2c[nH]c3ccccc23)NC(=O)[C@H](Cc2ccc(O)cc2)NC(=O)[C@H](CCC(=O)O)NC1=O)[C@@H](C)O` [VIP-132], 8 ± 0.8 nM; to `CC(=O)N[C@@H](CCCCN)C(=O)N[C@@H](CCCCN)C(=O)N[C@@H](CCCCN)C(=O)NCCCCCC(=O)N[C@H](C(=O)N[C@@H](CO)C(=O)N[C@@H](CC(C)C)C(=O)N[C@]1(C)CCCCCCC=CCCC[C@@](C)(C(=O)N[C@@H](CCC(=O)O)C(=O)N[C@@H](CC(N)=O)C(=O)N[C@@H](Cc2ccccc2)C(N)=O)NC(=O)[C@H](Cc2c[nH]c3ccccc23)NC(=O)[C@H](CC(C)C)NC(=O)[C@H](C)NC(=O)[C@H](Cc2ccccc2)NC(=O)[C@H](Cc2ccc(O)cc2)NC(=O)[C@H](CCC(=O)O)NC1=O)[C@@H](C)O` [VIP-127 SCRAM] (Ac-KKK[Ahx]TSL[R8]EYFALW[S5]ENF-NH2; staple 8-15), more than 10000 nM.
Regarding `CC(=O)N[C@H](C(=O)N[C@@H](CO)C(=O)N[C@@H](Cc1ccccc1)C(=O)N[C@]1(C)CCCCCCC=CCCC[C@@](C)(C(=O)N[C@@H](CCC(=O)O)C(=O)N[C@@H](CC(N)=O)C(=O)N[C@@H](Cc2ccc(O)cc2)C(N)=O)NC(=O)[C@H](CC(C)C)NC(=O)[C@H](CC(C)C)NC(=O)[C@H](C)NC(=O)[C@H](Cc2c[nH]c3ccccc23)NC(=O)[C@H](Cc2ccc(O)cc2)NC(=O)[C@H](CCC(=O)O)NC1=O)[C@@H](C)O` [VIP-66], the Kd stood at 23.1 ± 1.5 nM.
To `CC(=O)N[C@@H](CCCNC(=N)N)C(=O)NCCCCCC(=O)N[C@H](C(=O)N[C@@H](CO)C(=O)N[C@@H](Cc1ccccc1)C(=O)N[C@]1(C)CCCCCCC=CCCC[C@@](C)(C(=O)N[C@@H](CCC(=O)O)C(=O)N[C@@H](CC(N)=O)C(=O)N[C@@H](Cc2ccccc2)C(N)=O)NC(=O)[C@H](CC(C)C)NC(=O)[C@H](CC(C)C)NC(=O)[C@H](C)NC(=O)[C@H](Cc2c[nH]c3ccccc23)NC(=O)[C@H](Cc2ccc(O)cc2)NC(=O)[C@H](CCC(=O)O)NC1=O)[C@@H](C)O` [VIP-118] belongs 39.5 ± 3.9 nM.
To `CC(=O)N[C@@H](CCCCN)C(=O)N[C@@H](CCCCN)C(=O)NCCCCCC(=O)N[C@H](C(=O)N[C@@H](CO)C(=O)N[C@@H](Cc1ccccc1)C(=O)N[C@]1(C)CCCCCCC=CCCC[C@@](C)(C(N)=O)NC(=O)[C@H](CC(C)C)NC(=O)[C@H](CC(C)C)NC(=O)[C@H](C)NC(=O)[C@H](Cc2c[nH]c3ccccc23)NC(=O)[C@H](Cc2ccc(O)cc2)NC(=O)[C@H](CCC(=O)O)NC1=O)[C@@H](C)O` [VIP-77] belongs 46.8 ± 3.9 nM.
